31 molecules from patent publication US20090124672A1 (priority 2007, published 2009) can be followed below.

Broadly, the IC50 is the concentration that gives 50% inhibition. The inhibition is the drop in the measured response relative to a control, in per cent.

The first test concerns the target T1, hALDH2 (recombinant human mitochondria ALDH) (Homo sapiens, UniProt P05091).
T1 sequence (P05091 18-517): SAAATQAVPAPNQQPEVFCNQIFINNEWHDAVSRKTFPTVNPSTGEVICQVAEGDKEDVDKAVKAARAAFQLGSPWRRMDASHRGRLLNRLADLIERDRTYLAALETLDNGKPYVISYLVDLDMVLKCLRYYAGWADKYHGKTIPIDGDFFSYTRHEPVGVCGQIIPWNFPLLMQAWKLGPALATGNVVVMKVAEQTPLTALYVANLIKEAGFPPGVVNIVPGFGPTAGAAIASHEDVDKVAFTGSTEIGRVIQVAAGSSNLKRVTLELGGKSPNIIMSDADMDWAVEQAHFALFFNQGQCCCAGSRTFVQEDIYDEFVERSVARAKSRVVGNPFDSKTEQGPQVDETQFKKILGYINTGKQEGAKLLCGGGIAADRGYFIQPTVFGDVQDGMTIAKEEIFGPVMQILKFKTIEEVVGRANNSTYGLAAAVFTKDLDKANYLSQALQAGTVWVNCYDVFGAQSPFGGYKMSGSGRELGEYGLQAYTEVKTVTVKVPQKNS
Description: ALDH2 inhibition assay (NADH formation, formaldehyde substrate). It counts as biochemical.
Conditions: not given
How it is done:
ALDH2 inhibition assays were performed in sodium phosphate buffer (50 mM, pH 7.4) containing 1.2 mM NAD^+ (Sigma N7004), 1 nM hALDH2 (recombinant human mitochondria ALDH), various concentrations of test compounds (from 0.03 nM to 1000 nM), and 0.15 mM freshly prepared formaldehyde solution (Ladd Research 20295). Reactions were initiated by the addition of formaldehyde and rates were recorded by monitoring NADH formation in a temperature controlled (25° C.) FluoroMax-2 Fluorimeter with excitation and emission wavelengths set at 340 and 460 nm, respectively. […] Normally, IC50 values were determined by fitting concentration-inhibition data to sigmoidal dose-response curves with two-floating parameters: IC50 and Hill coefficient. When tight binding situation was suspected, apparent Ki values were estimated by fitting dose-response data to Morrison's equation [Methods in Enzymology 63, 437-467, 1979].
On to `N#Cc1cccc(-c2nc(COc3ccc4c(=O)c(-c5ccc(O)cc5)coc4c3)no2)c1` [PT-40, 3-(3-{[3-(4-hydroxyphenyl)-4-oxochromen-7-yloxy]methyl}-1,2,4-oxadiazol-5-yl)benzenecarbonitrile], for which the IC50 stood at 22 nM.

As to `O=C(O)c1cccc(-c2nc(COc3ccc4c(=O)c(-c5ccc(O)cc5)coc4c3)no2)c1` [PT-41, 3-(3-{[3-(4-hydroxyphenyl)-4-oxochromen-7-yloxy]methyl}-1,2,4-oxadiazol-5-yl)benzoic acid], the IC50 is 10 nM.

Consider `O=c1c(-c2ccc(O)cc2)coc2cc(OCc3noc(-c4cccc(F)c4)n3)ccc12` [PT-42, 7-{[5-(3-fluorophenyl)(1,2,4-oxadiazol-3-yl)]methoxy}-3-(4-hydroxyphenyl)chromen-4-one], for which the 50% inhibitory concentration (IC50) worked out at 62 nM.

Regarding `O=c1c(-c2ccc(O)cc2)coc2cc(OCc3nc(-c4ccccc4)no3)ccc12` [PT-43, 3-(4-hydroxyphenyl)-7-[(3-phenyl(1,2,4-oxadiazol-5-yl))methoxy]chromen-4-one], the IC50 came out at 470 nM.

Consider `O=c1c(-c2ccc(O)cc2)coc2cc(OCc3nc(-c4ccc(Cl)cc4)no3)ccc12` [PT-44, 3-(4-hydroxyphenyl)-7-({3-[4-chlorophenyl](1,2,4-oxadiazol-5-yl)}methoxy)chromen-4-one], for which the IC50 was 270 nM.

With `CS(=O)(=O)Nc1ccc(-c2coc3cc(OCc4noc(-c5ccc(F)cc5)n4)ccc3c2=O)cc1` [PT-48, 7-{[5-(4-fluorophenyl)(1,2,4-oxadiazol-3-yl)]methoxy}-3-{4-[(methylsulfonyl)amino]-phenyl}chromen-4-one], the half-inhibitory concentration (IC50) amounted to 140 nM.

As to `O=C(O)c1cnc(COc2ccc3c(=O)c(-c4ccc(O)cc4)coc3c2)o1` [PT-49, 2-{[3-(4-hydroxyphenyl)-4-oxochromen-7-yloxy]methyl}-1,3-oxazole-5-carboxylic acid], the IC50 turned out to be 16 nM.

As to `O=c1c(-c2ccc(O)cc2)coc2cc(OCNCc3cccc(C(F)(F)F)c3)ccc12` [PT-54, 3-(4-hydroxyphenyl)-7-[({[3-(trifluoromethyl)phenyl]methyl}amino)methoxy]chromen-4-one], the IC50 worked out at 5 nM.

Turning to `O=c1c(-c2ccc(O)cc2)coc2cc(OCc3cc(-c4cc(C(F)(F)F)cc(C(F)(F)F)c4)on3)ccc12` [PT-62, 7-({5-[3,5-bis(trifluoromethyl)phenyl]isoxazol-3-yl}methoxy)-3-(4-hydroxyphenyl)chromen-4-one], the IC50 amounted to 72 nM.

Take `N#Cc1ccc(-c2coc3cc(OCc4cc(-c5cccc(C(F)(F)F)c5)no4)ccc3c2=O)cc1` [PT-69, 4-[4-oxo-7-({3-[3-(trifluoromethyl)phenyl]isoxazol-5-yl}methoxy)chromen-3-yl]benzenecarbonitrile]: the IC50 is 180 nM.

For the molecule `O=c1c(-c2ccc(O)cc2)coc2cc(OCc3cnc(-c4ccc(C(F)(F)F)cc4)s3)ccc12` [PT-77, 3-(4-hydroxyphenyl)-7-({2-[4-(trifluoromethyl)phenyl](1,3-thiazol-5-yl)}methoxy)chromen-4-one], the IC50 stood at 122 nM.

Regarding `O=C(COc1ccc2c(=O)c(-c3ccc(O)cc3)coc2c1)c1cccc(F)c1` [PT-78, 7-[2-(3-fluorophenyl)-2-oxoethoxy]-3-(4-hydroxyphenyl)chromen-4-one], the IC50 was determined as 139 nM.

Take `O=c1c(-c2ccc(O)cc2)coc2cc(OCc3nnc(-c4ccccc4Cl)o3)ccc12` [PT-80, 7-{[5-(2-chlorophenyl)(1,3,4-oxadiazol-2-yl)]methoxy}-3-(4-hydroxyphenyl)chromen-4-one]: the half-inhibitory concentration (IC50) is 4 nM.

As to `CS(=O)(=O)Nc1ccc(-c2coc3cc(OCc4cnc(-c5ccc(C(F)(F)F)cc5)s4)ccc3c2=O)cc1` [PT-83, 3-{4-[(methylsulfonyl)amino]phenyl}-7-({2-[4-(trifluoromethyl)phenyl](1,3-thiazol-5-yl)}methoxy)chromen-4-one], the half-maximal inhibitory concentration (IC50) came out at 25 nM.

For `O=C(COc1ccc2c(=O)c(-c3ccc(O)cc3)coc2c1)c1ccccc1C(F)(F)F` [PT-85, 3-(4-hydroxyphenyl)-7-{2-oxo-2-[2-(trifluoromethyl)phenyl]ethoxy}chromen-4-one], the IC50 was 70 nM.

As for `O=c1c(-c2ccc(OCc3ccccn3)cc2)coc2cc(OCc3ccccn3)ccc12` [PT-93, 7-(2-pyridylmethoxy)-3-[4-(2-pyridylmethoxy)phenyl]chromen-4-one], the half-maximal inhibitory concentration (IC50) stood at 17 nM.

With `O=c1c(-c2ccc(O)cc2)coc2cc(OCc3cncc(C(F)(F)F)c3)ccc12` [PT-94, 3-(4-hydroxyphenyl)-7-{[5-(trifluoromethyl)(3-pyridyl)]methoxy}chromen-4-one], the 50% inhibitory concentration (IC50) came out at 20 nM.

For the molecule `O=c1c(-c2ccc(O)cc2)coc2cc(OCCNCc3cccc(C(F)(F)F)c3)ccc12` [PT-99, 3-(4-hydroxyphenyl)-7-[2-({[3-(trifluoromethyl)phenyl]methyl}amino)ethoxy]chromen-4-one], the IC50 was determined as 5 nM.

Consider `O=C(O)c1coc(COc2ccc3c(=O)c(-c4ccc(O)cc4)coc3c2)n1` [PT-102, 2-{[3-(4-hydroxyphenyl)-4-oxochromen-7-yloxy]methyl}-1,3-oxazole-4-carboxylic acid], for which the half-inhibitory concentration (IC50) turned out to be 16 nM.

On to `O=c1c(-c2ccc(O)cc2)coc2cc(OCc3nnc(-c4cccnc4)o3)ccc12` [PT-110, 3-(4-hydroxyphenyl)-7-[(5-(3-pyridyl)(1,3,4-oxadiazol-2-yl))methoxy]chromen-4-one], for which the 50% inhibitory concentration (IC50) was determined as 7 nM.

Take `O=c1c(-c2ccc(O)cc2)coc2cc(OCc3nc(-c4cccnc4)no3)ccc12` [PT-114, 3-(4-hydroxyphenyl)-7-[(3-(3-pyridyl)(1,2,4-oxadiazol-5-yl))methoxy]chromen-4-one]: the IC50 was 32 nM.

As to `O=c1c(-c2ccc(O)cc2)coc2cc(OCc3nc(-c4cccc(C(F)(F)F)c4)no3)ccc12` [PT-115, 3-(4-hydroxyphenyl)-7-({3-[3-(trifluoromethyl)phenyl](1,2,4-oxadiazol-5-yl)}methoxy)chromen-4-one], the 50% inhibitory concentration (IC50) was 38 nM.

`CNC(=O)c1coc(COc2ccc3c(=O)c(-c4ccc(O)cc4)coc3c2)n1` [PT-118, (2-{[3-(4-hydroxyphenyl)-4-oxochromen-7-yloxy]methyl}(1,3-oxazol-4-yl))-N-methylcarboxamide]: the IC50 came to 23 nM.

On to `COc1ccc2c(COc3ccc4c(=O)c(-c5ccc(O)cc5)coc4c3)cc(=O)oc2c1` [PT-119, 4-{[3-(4-hydroxyphenyl)-4-oxochromen-7-yloxy]methyl}-7-methoxychromen-2-one], for which the IC50 turned out to be 68 nM.

Staying with this test, now noted: at 1 μM.
For the molecule `O=c1c(-c2cn[nH]c2)coc2cc(OCc3noc(-c4cc(F)cc(C(F)(F)F)c4)n3)ccc12` [PT-75, 7-({5-[3-fluoro-5-(trifluoromethyl)phenyl](1,2,4-oxadiazol-3-yl)}methoxy)-3-(5-hydropyrazol-4-yl)chromen-4-one], the “hALDH2 inhibition (IC50 hALDH2 column)” value came to 14%.

On to `O=c1c(-c2ccc(O)cc2)coc2cc(OCc3cc(-c4ccc(Cl)cc4)on3)ccc12` [PT-95, 7-{[5-(4-chlorophenyl)isoxazol-3-yl]methoxy}-3-(4-hydroxyphenyl)chromen-4-one], for which the “hALDH2 inhibition (IC50 hALDH2 column)” value was determined as 57%.

Still in this test, the particulars now being: at 1 μM; read-out: hALDH2 inhibition (IC50 hALDH2 column).
Regarding `O=c1c(-c2ccc(OCc3ccc(C(F)(F)F)nc3)cc2)coc2cc(OCc3cncc(C(F)(F)F)c3)ccc12` [PT-46, 7-{[5-(trifluoromethyl)(3-pyridyl)]methoxy}-3-(4-{[6-(trifluoromethyl)(3-pyridyl)]methoxy}phenyl)chromen-4-one], the inhibition at 1 µM is 10%.

As for `CO/N=C(\N)c1ccc(-c2coc3cc(OCc4cccc(C(=O)OC)c4)ccc3c2=O)cc1` [PT-50, methyl 3-({3-[4-((1Z)-1-amino-2-methoxy-2-azavinyl)phenyl]-4-oxochromen-7-yloxy}methyl)benzoate], the inhibition at 1 µM stood at 47%.

For `NC(=O)c1ccc(-c2coc3cc(OCc4noc(-c5cc(F)cc(C(F)(F)F)c5)n4)ccc3c2=O)cc1` [PT-72, 4-[7-({5-[3-fluoro-5-(trifluoromethyl)phenyl](1,2,4-oxadiazol-3-yl)}methoxy)-4-oxochromen-3-yl]benzamide], the inhibition at 1 µM stood at 14%.

In the case of `O=c1c(-c2ccc3[nH]ncc3c2)coc2cc(OCc3noc(-c4cc(F)cc(C(F)(F)F)c4)n3)ccc12` [PT-86, 3-(1H-indazol-5-yl)-7-({5-[5-fluoro-3-(trifluoromethyl)phenyl](1,2,4-oxadiazol-3-yl)}methoxy)chromen-4-one], the inhibition at 1 µM was found to be 68%.

As to `O=c1c(-c2ccc(O)cc2)coc2cc(OCc3cc(-c4ccc(Cl)cc4)on3)ccc12` [PT-95, 7-{[5-(4-chlorophenyl)isoxazol-3-yl]methoxy}-3-(4-hydroxyphenyl)chromen-4-one], the inhibition at 1 µM is 57%.

Take `O=c1c(-c2ccc(O)cc2)coc2cc(OCc3cc(-c4ccc(Cl)c(Cl)c4)on3)ccc12` [PT-96, 7-{[5-(3,4-dichlorophenyl)isoxazol-3-yl]methoxy}-3-(4-hydroxyphenyl)chromen-4-one]: the inhibition at 1 µM came out at 47%.
